We go through one molecule from paper PMC5860131, “Identification of natural products as novel ligands for the human 5-HT2C receptor” (Biophysics Reports, 2018).

Each structure is given as a SMILES string.

Type in all cases: binding
Assay [1] addresses T1, 5-HT2C receptor G218^5.42A (Homo sapiens, UniProt P28335, DEL255-298/G218A/G251D/H250E/H252N/INS299[…]/L248D/M247A/M300L/T253W).
T1 construct: the N- and C-terminals were truncated by 39 and 65 residues, respectively; PreScission protease site + 10× His (C); made in house
The experiment in a line: CPM thermal stability assay, 5-HT2C mutant G218A. An excerpt: (§1) Based on the binding poses predicted by molecular docking, single-point mutations were designed to test their impact on ligand binding. Mutations of several residues include the highly conserved Asp134^3.32, which is known to cause 5-HT1B or 5-HT2B receptors to abolish the monoamine ligand binding as reported in the literature (Wang et al. [2013]). In this study, residues forming hydrophobic interactions with the substitution groups on the aporphine scaffold of (–)-crebanine (1) were selected for mutation as well and they are Thr139^3.37, Gly218^5.42, Ala222^5.46, and Leu209^ECL2. Effects of those mutations were tested with the CPM assay and the affinity MS assay (Table 2). In the affinity MS experiment, relative ligand-binding capacity (represented by binding %) to different mutants and the wild-type receptor was compared. […]
(§2) Purified 5-HT2C receptor protein was thoroughly mixed with CPM fluorescent dyes. […] Fluorescence signals, wavelength 387 nm (excitation) and 463 nm (emission), were monitored (Alexandrov et al. [2008]). […] The thermal denaturation of the samples was evaluated using the scatter plot curve, where the horizontal coordinates represented temperature and the vertical coordinates indicated normalized fluorescence intensity recorded for a particular temperature. […]

Assay [2] addresses T2, 5-HT2C receptor A222^5.46V (Homo sapiens, UniProt P28335, A222V/DEL255-298/G251D/H250E/H252N/INS299[…]/L248D/M247A/M300L/T253W).
T2 construct: the N- and C-terminals were truncated by 39 and 65 residues, respectively; PreScission protease site + 10× His (C); made in house
The experiment in a line: CPM thermal stability assay, 5-HT2C mutant A222V.
Description: as §1, §2

Assay [3] addresses T3, 5-HT2C receptor A222^5.46F (Homo sapiens, UniProt P28335, A222F/DEL255-298/G251D/H250E/H252N/INS299[…]/L248D/M247A/M300L/T253W).
T3 construct: the N- and C-terminals were truncated by 39 and 65 residues, respectively; PreScission protease site + 10× His (C); made in house
The experiment in a line: CPM thermal stability assay, 5-HT2C mutant A222F. Particulars: mutant A222^5.46F, n = 2.
Description: as §1, §2

In assay [4] the target is T1, 5-HT2C receptor G218^5.42A. The experiment in a line: Affinity MS assay, 5-HT2C mutant G218A.
Description: as §1, with “compared. Among the six mutations tested, five of them reduced the binding of (–)-crebanine (1) by more than 40% relative to binding to the wild-type receptor, displaying the importance of hydrophobic interactions.” for “compared.”
(§3) Four experimental replicates were prepared for each pair of the test ligand and the negative control. […] S/C ratios refer to the ratio of MS response of a specific ligand detected in the 5-HT2C incubation sample versus the control. […]

In assay [5] the target is T4, 5-HT2C receptor G218^5.42S (Homo sapiens, UniProt P28335, DEL255-298/G218S/G251D/H250E/H252N/INS299[…]/L248D/M247A/M300L/T253W).
T4 construct: the N- and C-terminals were truncated by 39 and 65 residues, respectively; PreScission protease site + 10× His (C); made in house
The experiment in a line: Affinity MS assay, 5-HT2C mutant G218S.
Description: as §1, with “compared. Among the six mutations tested, five of them reduced the binding of (–)-crebanine (1) by more than 40% relative to binding to the wild-type receptor, displaying the importance of hydrophobic interactions.” for “compared.”
as §3

For assay [6], the target named is T2, 5-HT2C receptor A222^5.46V. The experiment in a line: Affinity MS assay, 5-HT2C mutant A222V. Particulars: mutant A222^5.46V, n = 2.
Description: as §1, with “compared. Among the six mutations tested, five of them reduced the binding of (–)-crebanine (1) by more than 40% relative to binding to the wild-type receptor, displaying the importance of hydrophobic interactions.” for “compared.”
as §3

Assay [7] has as its target T5, 5-HT2C receptor L209^ECL2F (Homo sapiens, UniProt P28335, DEL255-298/G251D/H250E/H252N/INS299[…]/L209F/L248D/M247A/M300L/T253W).
T5 construct: the N- and C-terminals were truncated by 39 and 65 residues, respectively; PreScission protease site + 10× His (C); made in house
The experiment in a line: Affinity MS assay, 5-HT2C mutant L209F. As to conditions: n = 2.
Description: as §1, with “compared. Among the six mutations tested, five of them reduced the binding of (–)-crebanine (1) by more than 40% relative to binding to the wild-type receptor, displaying the importance of hydrophobic interactions.” for “compared.”
as §3

T1 sequence (P28335 with tags, fused parts or gaps with the stated changes): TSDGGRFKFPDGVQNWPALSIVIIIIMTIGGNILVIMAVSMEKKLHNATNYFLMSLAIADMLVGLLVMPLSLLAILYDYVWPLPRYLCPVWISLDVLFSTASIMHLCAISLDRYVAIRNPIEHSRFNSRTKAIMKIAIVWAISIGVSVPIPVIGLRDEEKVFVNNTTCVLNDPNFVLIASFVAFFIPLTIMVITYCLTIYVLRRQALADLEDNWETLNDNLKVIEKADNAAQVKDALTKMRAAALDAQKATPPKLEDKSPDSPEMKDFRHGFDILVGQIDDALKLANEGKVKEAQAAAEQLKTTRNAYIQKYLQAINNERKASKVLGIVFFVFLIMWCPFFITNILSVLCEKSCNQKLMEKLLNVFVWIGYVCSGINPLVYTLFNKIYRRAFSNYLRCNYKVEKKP
T2 sequence (P28335 with tags, fused parts or gaps with the stated changes): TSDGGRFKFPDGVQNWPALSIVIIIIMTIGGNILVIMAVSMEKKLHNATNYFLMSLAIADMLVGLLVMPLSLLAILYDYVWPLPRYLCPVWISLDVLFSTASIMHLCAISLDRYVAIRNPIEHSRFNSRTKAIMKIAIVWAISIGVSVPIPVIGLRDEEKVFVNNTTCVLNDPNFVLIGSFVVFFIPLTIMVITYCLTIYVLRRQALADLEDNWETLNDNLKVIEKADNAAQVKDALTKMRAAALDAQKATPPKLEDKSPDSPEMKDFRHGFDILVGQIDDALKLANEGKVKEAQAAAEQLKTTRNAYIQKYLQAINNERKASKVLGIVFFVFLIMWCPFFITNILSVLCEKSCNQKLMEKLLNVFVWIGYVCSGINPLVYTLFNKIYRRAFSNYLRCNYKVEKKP
T4 sequence (P28335 with tags, fused parts or gaps with the stated changes): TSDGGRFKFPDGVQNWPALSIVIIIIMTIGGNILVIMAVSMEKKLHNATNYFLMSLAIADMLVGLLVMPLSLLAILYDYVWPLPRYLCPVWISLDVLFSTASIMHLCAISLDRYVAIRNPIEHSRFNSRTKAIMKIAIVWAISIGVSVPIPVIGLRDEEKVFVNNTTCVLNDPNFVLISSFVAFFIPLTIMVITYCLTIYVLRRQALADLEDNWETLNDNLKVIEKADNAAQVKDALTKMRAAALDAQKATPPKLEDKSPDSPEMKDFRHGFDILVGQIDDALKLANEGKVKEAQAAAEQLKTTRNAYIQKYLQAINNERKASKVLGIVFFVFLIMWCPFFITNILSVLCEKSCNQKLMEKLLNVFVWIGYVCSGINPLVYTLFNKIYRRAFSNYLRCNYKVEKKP
T5 sequence (P28335 with tags, fused parts or gaps with the stated changes): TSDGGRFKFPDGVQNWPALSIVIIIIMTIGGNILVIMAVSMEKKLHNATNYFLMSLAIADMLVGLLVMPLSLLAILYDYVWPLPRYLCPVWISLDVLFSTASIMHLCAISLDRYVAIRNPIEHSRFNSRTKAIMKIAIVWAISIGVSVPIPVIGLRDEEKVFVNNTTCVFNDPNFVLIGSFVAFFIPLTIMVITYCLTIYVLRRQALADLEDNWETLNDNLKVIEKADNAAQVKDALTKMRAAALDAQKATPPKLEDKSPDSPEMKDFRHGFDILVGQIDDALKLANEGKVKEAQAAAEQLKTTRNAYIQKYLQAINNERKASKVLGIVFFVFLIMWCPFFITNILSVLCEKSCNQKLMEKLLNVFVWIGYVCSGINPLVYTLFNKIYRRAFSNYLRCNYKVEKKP
T3 sequence (P28335 with tags, fused parts or gaps with the stated changes): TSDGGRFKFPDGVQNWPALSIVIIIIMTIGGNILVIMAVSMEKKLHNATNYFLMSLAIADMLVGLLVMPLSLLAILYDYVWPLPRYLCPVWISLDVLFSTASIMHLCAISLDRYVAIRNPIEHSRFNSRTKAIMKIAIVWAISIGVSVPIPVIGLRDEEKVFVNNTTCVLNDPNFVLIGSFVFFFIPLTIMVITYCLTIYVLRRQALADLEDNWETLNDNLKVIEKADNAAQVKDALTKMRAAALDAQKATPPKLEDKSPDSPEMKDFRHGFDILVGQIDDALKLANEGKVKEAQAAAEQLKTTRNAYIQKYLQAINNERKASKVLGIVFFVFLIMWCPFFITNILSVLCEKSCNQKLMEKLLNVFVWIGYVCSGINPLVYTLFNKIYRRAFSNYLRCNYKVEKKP

With `COc1ccc2c(c1OC)C[C@@H]1c3c(cc4c(c3-2)OCO4)CCN1C` [Compound 1, (–)-crebanine], the “(–)-Crebanine/CPM (Tm)” value in assay [1] (mutant G218^5.42A, n = 2) worked out at 53.92 °C; in assay [2] (mutant A222^5.46V, n = 2), 59.55 °C; in assay [3], 55.70 °C. The “Tm value decrease versus wild-type” value in assay [1] (mutation Gly218^5.42Ala) was “over 6.0 °C”; in assay [2] (mutation Ala222^5.46Val), 0.38 °C. The “(–)-Crebanine/MS relative ligand binding” value in assay [4] (mutant G218^5.42A, n = 2) worked out at 9.82%; in assay [5] (mutant G218^5.42S, n = 2), 6.04%; in assay [6] it was 25.84%; in assay [7], 13.22%. Besides, the “ligand-binding capacity reduction versus wild-type” value in assay [4] (mutation Gly218^5.42Ala) and in assay [5] (mutation Gly218^5.42Ser) was “over 60%” throughout.
